Experimental data taken from patent EP4495227A1, “CO-CULTURES OF ORGANOIDS AND STROMAL CELLS” (HUB Organoids IP B.V., priority 2023, dated 2025).

Columns and labels:
[1] = biological target: type I nodal receptor ALK7; details: Tocris catalog description; cited from earlier work
[2] = biological target: type I activin/nodal receptor ALK4; details: Tocris catalog description; cited from earlier work
[3] = tested on: ALK-1, -2, -3, -6 and MAPK activity; details: Tocris catalog description; cited from earlier work
[4] = tested on: caspase 3/7 activity; assay: Caspase-Glo assay of apoptosis in organoid-fibroblast co-cultures challenged with TNF and IFNγ; assay type: cell-based, human; details: 10 µM tofacitinib; upon exposure to inflammatory cytokines; Figure 5B; measured in accordance with Example 6
Procedure: (§1) In Examples 4-9, fibroblast cultures, organoid cultures, and co-cultures of the fibroblasts and organoids, were prepared according to Examples 1-2. OSM (1 ng/mL) and IL-1β (1 ng/mL) were added to the co-cultures according to Example 3 where "proinflammatory stimuli" or "proinflammatory stimulation" are specified in Examples 4-9. Co-cultures were then incubated on plates for 72 hours at 37°C and 5% CO2 prior to cytokine or caspase analysis, or for 96 hours at 37°C and 5% CO2 prior to imaging analysis.
72 hours after organoids and fibroblasts were combined in co-culture, apoptosis in co-culture was triggered using inflammatory stimuli (in the form of damage-inducing cytokines), and measured 24 hours later, in co-cultures prepared using proinflammatory stimuli and in co-cultures not prepared using proinflammatory stimuli.
Stock solutions of TNF and IFNγ were diluted 1:1 with 0.6% Tween in PBS, and were added to the co-cultures at concentrations of 15 ng/mL and 15 ng/mL respectively. Plates were then incubated for 24 hours.
Apoptosis was assessed using a Caspase-Glo assay (e.g. Promega) to determine relative caspase 3/7 activity. Briefly, 95 µL of room-temperature caspase reagent was added to each plate. Plates were then shaken for 1 minute before incubation in the dark at room temperature for 30 minutes. […]

[5] = tested on: co-cultures of the fibroblasts and organoids; assay: Imaging of organoid morphology and area in organoid-fibroblast co-cultures (Calcein AM stain); assay type: cell-based, human; details: 10 µM tofacitinib; Figure 5A; measured in accordance with Example 4
Procedure: as §1
Organoids in co-culture were first stained with Calcein AM. 48 hours after the organoids and fibroblasts were combined in co-culture, 50 µL DMSO was added to a vial of Calcein AM and mixed. 88 µL of the mixture was added to 4,312 µL of Ad-DF+++ media. 10 µL of the final Calcein AM mixture was added to co-cultures before 5-10 seconds of shaking in a Tecan D300. Plates were then incubated for 2 hours at 37°C and 5% CO2. Imaging were then performed to assess organoid morphology.

Row | SMILES | IC50 [1] | IC50 [2] | inhibition of ALK-1, -2, -3, -6 and MAPK activity [3] | caspase activity [4] | change in morphology [5]
1 | Cc1cccc(-c2nn(C(=S)Nc3ccccc3)cc2-c2ccnc3ccccc23)n1 [A83-01] | 7.5 nM | 45 nM | only weakly inhibits |  | 
2 | C[C@@H]1CCN(C(=O)CC#N)C[C@@H]1N(C)c1ncnc2[nH]ccc12 [tofacitinib] |  |  |  | greatly diminishes | small change
